Data as given in patent US4822775A, “Phenyl substituted dipeptide amides” (priority 1986, dated 1989).
Like-named read-outs stand apart in the source and are kept apart here.

Columns and labels:
mice = test: Writhing assay (phenylbenzoquinone-induced writhing); format: in vivo, mouse; details: 30 min before phenylbenzoquinone i.p.; for Writhing Mouse Oral: screening dose 10 mg/kg p.o. (intragastric); for Writhing Mouse Subc.: screening dose 10 mg/kg s.c.
Procedure: Writhing assay. Male Charles River albino mice (CD-1/HAM/1LR) weighing between 20 and 30 grams were used. Thirty minutes after subcutaneous or intragastric administration of the test compound (0.1 mg/10 gram body weight), 0.025% (w/v) phenylbenzoquinone was injected intraperitoneally (0.1 ml/10 gram body weight). Five minutes later, each mouse was placed in a large glass beaker and the number of writhes that occurred in the subsequent ten minutes is counted. A writhe consisted of dorsoflexion of the back, extension of the hindlimbs, and strong contraction of the abdominal musculature. The test compounds was considered to have produced analgesia in a mouse if the number of writhes elicited by phenylbenzoquinone was equal to or less than one-half the median number of writhes recorded for the saline-treated group that day. The results were expressed as the number of mice (out of a possible ten) in which the test compound produced analgesia.

[1] = target: opiate receptors isolated from rat brain; format: binding; details: for IC50: read-out: Opiate Binding, IC50
opiate activity = details: cited from earlier work
rat = details: injected directly into the brain of the rat; cited from earlier work
[2] = 1 nM 3H-Naloxone, rat brain receptor membranes, standard screening dose 10^-5 molar (words such as Inactive refer to it)
[3] = 1 nM 3H-Naloxone, rat brain receptor membranes, standard screening dose 10^-5 molar (words such as Inactive refer to it), monohydrochloride

Row | Molecule | Writhing Mouse Oral (mice) | Writhing Mouse Subc. (mice) | other results
1 | 2,6-dimethyl-L-tyrosyl-N-[2-(2-thienyl)ethyl]-D-alaninamide, monohydrochloride [Example 39] | Inactive | Inactive | –
2 | 2,6-dimethyltyrosyl-N-(2,3-dihydro-1H-inden-2-yl)-D-alaninamide, monohydrochloride [Example 24] | Inactive | Lethal | IC50 [1, 2]: 860 nM
3 | 2,6-dimethyltyrosyl-N-(6-methoxy-6-oxohexyl)-D-alaninamide, monohydrochloride [Example 5] | – | Inactive | IC50 [1, 3]: 10000 nM
4 | 2,6-dimethyltyrosyl-N-(6-methoxy-6-oxohexyl)-D-alaninamide, monohydrochloride [Example 7] | Inactive | Inactive | IC50 [1, 3]: 1000 nM
5 | 2,6-dimethyltyrosyl-N-[3-(2-thienyl)propyl]-D-alaninamide, monohydrochloride [Example 46] | – | – | Writhing Mouse Oral (mice; monohydrochloride, 10 mg/kg): Inactive; Writhing Mouse Subc. (mice; monohydrochloride, 10 mg/kg): Inactive; IC50 [1, 3]: 220 nM
6 | 2,6-dimethyltyrosyl-N-[3-(2-thienyl)propyl]-D-alaninamide, monohydrochloride [Example 47] | – | – | Writhing Mouse Oral (mice; monohydrochloride, 10 mg/kg): Active; Writhing Mouse Subc. (mice; monohydrochloride, 10 mg/kg): Active; IC50 [1, 3]: 2.9 nM
7 | 2,6-dimethyltyrosyl-N-[3-(3-thienyl)-2E-propenyl]-D-alaninamide, monohydrochloride [Example 58] | Inactive | Active | IC50 [1, 2]: 1 nM
8 | 2,6-dimetyltyrosyl-N-[3-(2-thienyl)-2E-propenyl]-D-alaninamide, monohydrochloride [Example 52] | Inactive | Active | –
9 | 2-(2R-amino-1-oxopropyl)-1,2,3,4-tetrahydroisoquinoline, monohydrochloride [Example 32] | Active | Inactive | Opiate Binding, IC50 [1, 2]: Inactive
10 | Cc1cc(O)cc(C)c1CC(NC(=O)OC(C)(C)C)C(=O)N[C@H](C)C(=O)NCCSc1ccccc1 (mixture of isomers) [Example 108, N-[(1,1-dimethylethoxy)carbonyl]-2,6-dimethyl-DL-tyrosyl-N-[2-(phenythio)ethyl]-D-alaninamide] | Inactive | Active | IC50 [1]: 8.2 nM
11 | Cc1cc(O)cc(C)c1CC(NC(=O)OC(C)(C)C)C(=O)N[C@H](C)C(=O)NCCOc1ccccc1 (mixture of isomers) [Example 115, N-[(1,1-dimethylethoxy)carbonyl]O2,6-dimethyl-DL-tyrosyl-N-(2-phenoxyethyl)-D-alaninamide] | Active | Active | IC50 [1]: 8.7 nM
12 | Cc1cc(O)cc(C)c1C[C@H](N)C(=O)N[C@@H](C)C(=O)N1CCCc2ccccc21.Cl (relative stereo) [Example 29, αS-R*-amino-4-hydroxy-2,6-dimethyl-N-[1S*-methyl-2-oxo-2-(1,2,3,4-tetrahydro-1-quinolinyl)ethyl]benzenepropanamide, monohydrochloride] | Inactive | Inactive | IC50 [1]: 4900 nM
13 | Cc1cc(O)cc(C)c1C[C@H](N)C(=O)N[C@H](C)C(=O)N1CCc2ccccc2C1.Cl (single isomer, unassigned) [Example 35, α-amino-4-hydroxy-2,6-dimethyl-N-[1R-methyl-2-oxo-2-(1,2,3,4-tetrahydro-2-isoquinolinyl)ethyl]benzenepropanamide, monohyrochloride] | Active | Active | IC50 [1, 2]: 14 nM
14 | C[C@@H](NC(=O)OCc1ccccc1)C(=O)NC1Cc2ccccc2C1 [Example 20, phenylmethyl [2-[(2,3-dihydro-1H-inden-2-yl)amino]-1R-methyl-2-oxoethyl]carbamate] | Inactive | Active | Opiate Binding, IC50 [1, 2]: Inactive
15 | C[C@@H](N)C(=O)NC1Cc2ccccc2C1 [Example 21] | Inactive | Active | Opiate Binding, IC50 [1]: Inactive
16 | C[C@@H](NC(=O)OCc1ccccc1)C(=O)N1CCCc2ccccc21 [Example 25, phenylmethyl [1R-methyl-2-oxo-2-(1,2,3,4-tetrahydro-1-quinolinyl)ethyl]carbamate] | Inactive | Inactive | IC50 [1, 2]: 80000 nM
17 | C[C@@H](N)C(=O)NCCCc1cccs1 [Example 44, 2R-amino-N-[3-(2-thienyl)propyl]propanamide] | Active | Active | Opiate Binding, IC50 [1, 2]: Inactive
18 | COc1ccc(CCCNC(=O)[C@@H](C)N)cc1 [Example 60, αR-amino-N-[3-(4-methoxyphenyl)propyl]propanamide] | Active | Active | IC50 [1, 2]: 36000 nM
19 | Cc1cc(O)cc(C)c1C[C@H](N)C(=O)N[C@H](C)C(=O)NCCC(c1ccccc1)c1ccccc1.Cl [Example 73, 2,6-dimethyltyrosyl-N-(3,3-diphenylpropyl)-D-alaninamide, monohydrochloride] | Inactive | Active | IC50 [1, 2]: 0.3 nM
20 | Cc1cc(O)cc(C)c1C[C@H](N)C(=O)N[C@H](C)C(=O)NCCSc1ccccc1.Cl [Example 109, 2,6-dimethyltyrosyl-N-[2-(2-(phenylthio)ethyl]-D-alaninamide, monohydrochloride] | – | – | IC50 [1]: 0.4 nM
21 | Cc1cc(O)cc(C)c1C[C@H](N)C(=O)N[C@H](C)C(=O)NCCSc1ccccc1.Cl [Example 109] | Inactive | Active | –
22 | methionine enkephalin | – | – | activity in bioassays for opiate activity (opiate activity): highly active; analgesic activity (rat): only weak, fleeting analgesic activity
23 | α-amino-4-hydroxy-2,6-dimethyl-N-[1R-methyl-2-oxo-2-(1,2,3,4-tetrahydro-1-quinolinyl)ethyl]benzenepropanamide, monohydrochloride [Example 30] | Inactive | Inactive | –
24 | α-amino-4-hydroxy-2,6-dimethyl-N-[1R-methyl-2-oxo-2-(1,2,3,4-tetrahydro-2-isoquinolinyl)ethyl]benzenepropanamide, monohydrochloride [Example 37] | Inactive | Inactive | IC50 [1, 2]: 1400 nM
